From patent US20200123146A1, “HETEROCYCLIC INTEGRIN AGONISTS” (GB006, Inc., priority 2016, published 2020)

Experiments:
[1] = target: T1, integrin CD11b/CD18 (K562 CD11b/CD18 cells) (Homo sapiens, UniProt P05107+P11215); assay: K562 cell adhesion assay with immobilized ligands; type: cell-based; conditions: cell-based adhesion assay, K562 cells, 30 min at 37° C.
T1 construct: host or cells: K562 cells stably transfected with wild-type CD11b/CD18
Excerpt: (§1) Cell Lines. K562 cells (ATCC) stably transfected with wild-type integrin CD11b/CD18 (K562 CD11b/CD18) have been described previously (Park, etal. J Biomol Screen, 2007. 12(3): 406; Gupta, et al., Blood, 2007. 109(8): 3513; incorporated herein by reference in their entirety). Mutant CD11bE320A has been described previously (Alonso, et al. Curr Biol, 2002. 12(10): R340; incorporated herein by reference in its entirety). K562 cells stably transfected with mutant integrin CD11bE320A/CD18 (K562 E320A) were generated according to literature protocols (Park, supra; Gupta, supra). All cell lines were maintained in Iscove's Modified Dulbecco's Medium (IMDM) supplemented with 10% heat-inactivated fetal bovine serum, 50 IU/ml penicillin and streptomycin and 0.5 mg/ml G418.
(§2) K562 Cell Adhesion Assay. Cell adhesion assays with immobilized ligands were performed as previously described (Park, supra). Assays with all different K562 cell lines (K562, K562 CD11b/CD18 and K562 E320A) were performed in an identical fashion. Briefly, 384-well Highbind microtiter plates were coated with a 30 μL solution of ligand in Phosphate Buffered Saline, pH 7.4 containing 1 mM each of Ca^2+ and Mg^2+ ions (PBS^++) overnight at 4° C. Ligand Fg was coated at a concentration of 5-15 μg/mL and iC3b at 1-5 μg/mL. Heterodimer specific mAb IB4 was coated at 1-20 μg/mL. Subsequently, the non-specific sites in the wells were blocked by incubation with 1% non-fat milk in Tris Buffered Saline (TBS), pH 7.4, at room temperature for 1 h. Next, the wells were washed three times with TBS. K562 cells were suspended in the assay buffer (TBS containing 1 mM each of Ca^2+ and Mg^2+ ions (TBS^++)) and were transferred to the ligand-coated wells (30,000 cells/well). Stock solutions of the integrin agonists were prepared by dissolving the compounds in DMSO at a concentration of 2-10 mM. Final concentration of DMSO in the assay was approximately 1-2%. K562 cells were incubated in the presence of increasing concentration of integrin agonist for 30 min at 37° C. To dislodge non-adherent cells, the assay plates were gently inverted and kept in the inverted position for 30 min at room temperature. Cells remaining adherent were fixed using formaldehyde and were quantitated using imaging microscopy, as previously described (Park, supra).

[2] = target: T2, integrin CD11b/CD18 (K562 CD11b/CD18 cells) (Homo sapiens, UniProt P11215); assay: K562 cell adhesion assay with immobilized ligands; type: cell-based; conditions: for activity level in adhesion assay: compared with the other compounds in the study
T2 construct: host or cells: K562 cells stably transfected with wild-type CD11b/CD18
Excerpt: as §1, §2

[3] = in vivo; cited from earlier work
[4] = upon vascular injury in rats; cited from earlier work
[5] = in vivo; cited from earlier work; remark: listed apart in the source
[6] = in vivo; cited from earlier work; remark: listed apart in the source
[7] = in vivo; cited from earlier work; remark: listed apart in the source
leukocytes = conditions: acute peritonitis in mice; cited from earlier work
tumor = conditions: in vivo; cited from earlier work
[8] = mice; cited from earlier work
[9] = Pharmacokinetic properties after PO/IV cassette dosing; type: in vivo, Balb/C mice; conditions: mouse, plasma; for AUC(0-t): PO 10 mg/kg and/or IV 1 mg/kg cassette dose; for Vd: read-out: Vdss; for bioavailability: head prints Rat, method Balb/C mice, PO 10 mg/kg, IV 1 mg/kg cassette dose, read-out: Rat F %
Method: Integrin agonists as described above were administered to Balb/C mice orally (PO; gavage; 10 mg/kg) and/or intravenously (IV; bolus through tail vein; 1 mg/kg) as a cassette dose with 2 to 3 compounds dosed at a time. A total of twelve mice between age 5-6 weeks with a body weight range of 24-28 g were used. The feeding regimen included 4 h fasting and the feed was provided 2 h after the dosage inoculation and water was provided ad libitum. The blood collection schedule for PO was at 0.25, 0.5, 1, 2, 4, 8,10 and 24 h, and for IV it was at 0.12, 0.25, 0.5, 1, 2, 4, 8 and 24 h post-dose administration under isoflurane anesthesia. For PO dosage, a suspension formulation in 0.2% Tween-80 and 99.8% methyl cellulose (0.5% in water) was prepared in milli-Q water; for IV dosage, a solution formulation in 5% DMSO, 5% Solutol:absolute alcohol (1:1, v/v), and 90% normal saline was prepared.
Dose preparation: For PO dosage, each integrin agonist was wetted with Tween-80 and triturated in a mortar and pestle, and then 0.5% of methyl cellulose was slowly added to make up the final volume for administration. For IV dosage, each integrin agonist was dissolved in DMSO and Solutol:absolute ethanol (1:1, v/v), vortexed, and combined with normal saline.
Methodology for preparation of CC/QC samples: 5 μL of working stock solution was spiked in to 45 μL of blank plasma to obtain the desired concentration in pre-labeled vials. To it was added 250 μL of 100% acetonitrile containing internal standard (tolbutamide: 100 ng/mL) and the sample was vortexed for 2 min followed by centrifugation for 5 min at 20,817×g at 4° C. Supernatant was separated and 5 μL of same was injected on LC-MS/MS.
Data Analysis: Na2EDTA plasma samples were analyzed using a fit-for-purpose LC-MS/MS method.

CT26 cells = assay: Syngeneic colon cancer mouse model using CT-26 cell line; type: in vivo, BALB/c mice; conditions: Day 21, female Balb/C, 10 mg/kg PO BID
Method: Compound 1, compound 8, and compound 12 were dosed at 10 mg/kg BID oral daily for 21 days in a syngeneic colon cancer mouse model using CT-26 cell line. CT26 cells were injected subcutaneously into right flank of female BALB/c mice, aged 7-8 weeks, on Day 1. Tumors were grown for 11 days and dosing was begun and dosed daily for 21 days. Tumor volume/growth (TV=Length×Width 2/2) was measured two times a week. Body weight was measured twice weekly. At the end of study tumor tissue and serum was collected and preserved. Morbidity and Mortality was monitored during the course of study.

[10] = Balb/C, IV 1 mg/kg and/or PO 10 mg/kg cassette dose

O=C(O)c1ccc(-c2ccc(/C=C3\SC(=S)N(Cc4ccc(F)cc4)C3=O)o2)cn1 [Compound 15, (Z)-5-(5-((3-(4-Fluorobenzyl)-4-oxo-2-thioxothiazolidin-5-ylidene)methyl)furan-2-yl)picolinic acid]
EC50 [1]: 100 to 250 nM | activity level in adhesion assay [2]: some of the highest activity levels

O=C(O)c1ccc(-c2ccc(/C=C3\SC(=S)N(Cc4ccccc4)C3=O)o2)cc1 [LA1, (Z)-4-(5-((3-benzyl-4-oxo-2-thioxothiazolidin-5-ylidene)methyl)furan-2-yl)benzoic acid]
hyperoxia-dependent lung injury [3]: reduce hyperoxia-dependent lung injury | neointimal thickening [4]: reduce neointimal thickening | liver repair [5]: enhance liver repair | liver fibrosis [6]: reduce liver fibrosis | allograft survival [7]: increase allograft survival | recruitment of leukocytes (leukocytes): reduce recruitment of leukocytes | tumor growth and re-growth (tumor): reduced tumor growth and re-growth | renal ischemia/reperfusion injury [8]: reduce renal ischemia/reperfusion injury

O=C(O)c1ccc(-c2ccc(/C=C3\SC(=S)N(Cc4ccccc4)C3=O)o2)cn1 [Compound 12, (Z)-5-(5-((3-benzyl-4-oxo-2-thioxothiazolidin-5-ylidene)methyl)furan-2-yl)picolinic acid]
Cmax [9, 10]: 55 ng/mL | Tmax [9, 10]: 0.5 h | half-life [9, 10]: 83.4 min | AUC(0-t) ([9]; Balb/C): 176 ng·h/mL | EC50 [1]: 100 to 250 nM | activity level in adhesion assay [2]: some of the highest activity levels | % Reduction in Tumor Volume (CT26 cells): −4.42% | % Reduction in Tumor Weight (CT26 cells): 11.03%

O=C1/C(=C/c2ccc(-c3ccc(-c4nnn[nH]4)cc3)o2)SC(=S)N1Cc1ccccc1 [Compound 42, (Z)-5-((5-(4-(1H-tetrazol-5-yl)phenyl)furan-2-yl)methylene)-3-benzyl-2-thioxothiazolidin-4-one]
Tmax [9, 10]: 0.5 h | half-life [9, 10]: 46.2 min | Vd [9, 10]: 1.15 L/kg | AUC(0-t) ([9]; Balb/C): 357 ng·h/mL | bioavailability [9]: 4.1% | EC50 [1]: 250 to 1000 nM

O=C(O)c1ccc(-c2ccc(/C=C3\OC(=S)N(Cc4ccc(F)cc4)C3=O)o2)cc1 [Compound 8, (Z)-4-(5-((3-(4-Fluorobenzyl)-4-oxo-2-thioxooxazolidin-5-ylidene)methyl)furan-2-yl)benzoic acid]
Tmax [9, 10]: 2 h | half-life [9, 10]: 185 min | Vd [9, 10]: 1.37 L/kg | bioavailability [9]: 8.82% | EC50 [1]: 100 to 250 nM | % Reduction in Tumor Volume (CT26 cells): 5.25% | % Reduction in Tumor Weight (CT26 cells): −3.08%

O=C(O)c1ccc(-c2ccc(/C=C3\OC(=S)N(Cc4ccccc4)C3=O)o2)cc1 [Compound 1, (Z)-4-(5-((3-Benzyl-4-oxo-2-thioxooxazolidin-5-ylidene)methyl)furan-2-yl)benzoic acid]
Tmax [9, 10]: 2 h | half-life [9, 10]: 118 min | Vd [9, 10]: 1.5 L/kg | AUC(0-t) ([9]; Balb/C): 1060 ng·h/mL | bioavailability [9]: 18.6% | EC50 [1]: 250 to 1000 nM | fold more active in promoting adhesion than imidazolidine compound 4 ([2]; relative to compound 4): greater than 7 fold | fold more active in promoting adhesion than imidazolidine compound 5 ([2]; relative to compound 5): greater than 40 fold | % Reduction in Tumor Volume (CT26 cells): −38.30% | % Reduction in Tumor Weight (CT26 cells): −37.15%

O=C(O)c1ccc(-c2ccc(/C=C3\SC(=S)N(Cc4ccc(Cl)cc4)C3=O)o2)cc1 [Compound 35, (Z)-4-(5-((3-(4-Chlorobenzyl)-4-oxo-2-thioxothiazolidin-5-ylidene)methyl)furan-2-yl)benzoic acid]
EC50 [1]: 100 to 250 nM

Cc1ccc(CN2C(=O)/C(=C/c3ccc(-c4ccc(C(=O)O)cc4)o3)SC2=S)c(C)c1 [Compound 37, (Z)-4-(5-((3-(2,4-Dimethylbenzyl)-4-oxo-2-thioxothiazolidin-5-ylidene)methyl)furan-2-yl)benzoic acid]
EC50 [1]: 1000 to 10000 nM

CC(C)c1ccc(CN2C(=O)/C(=C/c3ccc(-c4ccc(C(=O)O)cc4)o3)SC2=S)cc1 [Compound 39, (Z)-4-(5-((3-(4-Isopropylbenzyl)-4-oxo-2-thioxothiazolidin-5-ylidene)methyl)furan-2-yl)benzoic acid]
EC50 [1]: 250 to 1000 nM

O=C(O)c1ccc(-c2cccc(/C=C3\SC(=S)N(Cc4ccc(F)cc4)C3=O)c2)cc1 [Compound 20, (Z)-3′-((3-(4-Fluorobenzyl)-4-oxo-2-thioxothiazolidin-5-ylidene)methyl)-[1,1′-biphenyl]-4-carboxylic acid]
EC50 [1]: 1000 to 10000 nM

COC(=O)c1ccc(-c2ccc(/C=C3\SC(=S)N(Cc4ccccc4)C3=O)o2)cn1 [Compound 13, Methyl (Z)-5-(5-((3-benzyl-4-oxo-2-thioxothiazolidin-5-ylidene)methyl)furan-2-yl)picolinate]
EC50 [1]: 250 to 1000 nM
